Values quoted from earlier work in US12390476B2, “Multiphasic contraceptive regimen for oral combination drug formulation of progestin and estrogen” (priority 2011, dated 2025).

Details: compared to gestodene, desogestrel and drospirenone

For `C#C[C@]1(O)CC[C@H]2[C@@H]3CCC4=CC(=O)CC[C@@H]4[C@H]3CC[C@@]21CC` [LNG, levonorgestrel], the “incidence of venous thromboembolism (VTE)” value is listed as “lowest incidence”.
